Results on one molecule are retold here after US12370188B2, “Formulations of dazucorilant, a glucocorticoid receptor modulator” (Corcept Therapeutics Incorporated, priority 2022, dated 2025).

The data set in a line: Solubility of Compound I in water. Type of data set: physicochemical. An excerpt:
Compositions prepared by routine methods, even if able to solubilize small amounts of Compound I, have proven unstable with Compound I falling out of solution, or in which Compound I is found to be subject to rapid degradation, or incompatible with a pharmaceutically acceptable capsule.

For the molecule `O=C(c1ccccn1)[C@]12Cc3cnn(-c4ccc(F)cc4)c3C=C1CCN(S(=O)(=O)c1ccc(C(F)(F)F)cc1)C2` [Compound I, (R)-(1-(4-fluorophenyl)-6-((4-(trifluoromethyl)phenyl)sulfonyl)-4,4a,5,6,7,8-hexahydro-1H-pyrazolo[3,4-g]isoquinolin-4a-yl)(pyridin-2-yl)methanone], the solubility in water entry was “practically insoluble”.
